Results reported in ChEMBL document CHEMBL1201862, “PubChem BioAssay data set” (2004).
Activity calls are given as the source filed them. Rule as the data show it, for most assays here: actives have a measured EC50 and inactives only a lower limit.

Key:
INS1 = experiment: beta cell apoptosis inhibitors, cytokine rescue, dose response, luminescence, retest (AID 449756); type: functional, cell-based; settings: Rattus norvegicus;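 also: cell death triggered by IL-1 beta plus TNF-alpha plus IFN-gamma mixture; protective hits raise ATP signal compared with cytokine alone wells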
[1] = NIH-3T3 fibroblast cytotoxicity, dose response, cytotoxicity control, cell-based, fluorescence, Alamar Blue, secondary assay (AID 2327); type: functional;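 also: NIH-3T3 mouse fibroblasts cultured with fluconazole at 8 µg/mL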
[2] = C. albicans growth with fluconazole, confirmation, fluorescence, retest (AID 2467); type: functional, cell-based
[3] = target: T1, Corticotropin-releasing factor receptor 2/Corticotropin-releasing factor-binding protein (Homo sapiens, UniProt P24387+Q13324); experiment: Dose Response confirmation of uHTS hits for small molecule antagonists of the CRF-binding protein and CRF-R2 receptor complex.; type: functional; settings: read-out: IC50_Mean
T1 sequence (Q13324 whole entry): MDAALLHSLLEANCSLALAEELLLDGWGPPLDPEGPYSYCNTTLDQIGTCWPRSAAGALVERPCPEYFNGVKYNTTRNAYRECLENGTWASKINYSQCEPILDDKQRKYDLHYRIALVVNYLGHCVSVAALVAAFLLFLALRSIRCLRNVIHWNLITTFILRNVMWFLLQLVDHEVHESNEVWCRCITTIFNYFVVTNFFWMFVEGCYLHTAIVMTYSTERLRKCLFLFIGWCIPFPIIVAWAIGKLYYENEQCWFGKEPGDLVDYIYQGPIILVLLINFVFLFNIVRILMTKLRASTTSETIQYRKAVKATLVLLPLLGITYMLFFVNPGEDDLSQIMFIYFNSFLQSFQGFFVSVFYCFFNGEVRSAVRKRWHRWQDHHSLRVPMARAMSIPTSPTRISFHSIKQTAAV
T1 sequence (P24387 whole entry): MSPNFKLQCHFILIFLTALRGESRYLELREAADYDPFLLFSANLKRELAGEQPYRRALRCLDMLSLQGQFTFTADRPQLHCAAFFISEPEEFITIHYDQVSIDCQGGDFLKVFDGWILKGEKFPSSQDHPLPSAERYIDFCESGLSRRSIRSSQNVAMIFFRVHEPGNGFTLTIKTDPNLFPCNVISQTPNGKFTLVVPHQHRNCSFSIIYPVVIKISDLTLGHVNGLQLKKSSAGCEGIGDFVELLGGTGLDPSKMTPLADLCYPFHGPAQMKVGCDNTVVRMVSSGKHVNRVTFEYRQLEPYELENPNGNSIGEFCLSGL

[4] = target: T1, Corticotropin-releasing factor receptor 2/Corticotropin-releasing factor-binding protein; experiment: activators of CRF receptor 2 with binding protein – uHTS hits, confirmation (AID 602473); type: functional; settings: read-out: EC50_Mean
[5] = target: T2, Heat shock factor protein 1 (Mus musculus, UniProt P38532); experiment: HSF1 potentiators in luciferase reporter cells, confirmation, cell-based, NIH3T3, luminescence, dose retest (AID 435004); type: functional;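 also: stress induced by proteasome inhibitor MG132 added 30 min after compound; luciferase reporter driven by HSF1 response element in NIH3T3 cells; actives raise luminescence as potentiators of the MG132 stress response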
T2 sequence (P38532 whole entry): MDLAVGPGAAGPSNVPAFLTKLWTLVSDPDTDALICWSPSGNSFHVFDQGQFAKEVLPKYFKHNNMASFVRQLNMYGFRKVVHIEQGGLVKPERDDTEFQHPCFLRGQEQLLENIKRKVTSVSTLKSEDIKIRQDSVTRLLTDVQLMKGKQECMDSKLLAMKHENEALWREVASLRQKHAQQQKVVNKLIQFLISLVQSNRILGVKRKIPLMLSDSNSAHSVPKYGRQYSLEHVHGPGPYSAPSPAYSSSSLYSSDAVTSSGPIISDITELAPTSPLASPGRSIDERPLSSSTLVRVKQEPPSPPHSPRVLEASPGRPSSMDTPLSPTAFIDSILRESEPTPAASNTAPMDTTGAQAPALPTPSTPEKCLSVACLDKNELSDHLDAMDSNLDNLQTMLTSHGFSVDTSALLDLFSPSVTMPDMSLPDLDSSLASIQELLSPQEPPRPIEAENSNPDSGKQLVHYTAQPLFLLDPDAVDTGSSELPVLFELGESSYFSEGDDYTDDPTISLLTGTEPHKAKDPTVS

[6] = target: T3, Ubiquitin-conjugating enzyme E2 N (Homo sapiens, UniProt P61088); type: functional;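 also: Dose-response confirmation in a TR-FRET assay detecting UBC13-driven polyubiquitin chain formation, inhibition measured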
T3 sequence (P61088 whole entry): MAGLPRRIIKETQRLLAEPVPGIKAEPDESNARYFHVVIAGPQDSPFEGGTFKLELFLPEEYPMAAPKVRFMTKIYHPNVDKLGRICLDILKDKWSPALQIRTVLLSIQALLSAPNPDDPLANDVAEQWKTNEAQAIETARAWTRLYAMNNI

[7] = inhibitors of intracellular T. cruzi replication, confirmation, NIH3T3 host cells, beta-gal luminescence (AID 2044); type: functional, cell-based;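 also: intracellular parasites grown in NIH/3T3 mouse fibroblasts as host cells; luminescent beta-galactosidase reporter signal from transgenic T. cruzi replicating inside host cells; inhibitors lower the luminescence signal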
[8] = cytotoxicity toward NIH3T3 fibroblasts, dose response, counter-screen, cell-based, ATP luminescence, mouse fibroblasts (AID 2010); type: functional;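 also: cells exposed to compound for about 90 hours before reading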
Cytochrome P450 2D6 = Cytochrome P450 2D6 (Homo sapiens, UniProt P10635);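 also: CYP2D6 member of a cytochrome P450 panel assay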
Cytochrome P450 2D6, sequence (P10635 whole entry): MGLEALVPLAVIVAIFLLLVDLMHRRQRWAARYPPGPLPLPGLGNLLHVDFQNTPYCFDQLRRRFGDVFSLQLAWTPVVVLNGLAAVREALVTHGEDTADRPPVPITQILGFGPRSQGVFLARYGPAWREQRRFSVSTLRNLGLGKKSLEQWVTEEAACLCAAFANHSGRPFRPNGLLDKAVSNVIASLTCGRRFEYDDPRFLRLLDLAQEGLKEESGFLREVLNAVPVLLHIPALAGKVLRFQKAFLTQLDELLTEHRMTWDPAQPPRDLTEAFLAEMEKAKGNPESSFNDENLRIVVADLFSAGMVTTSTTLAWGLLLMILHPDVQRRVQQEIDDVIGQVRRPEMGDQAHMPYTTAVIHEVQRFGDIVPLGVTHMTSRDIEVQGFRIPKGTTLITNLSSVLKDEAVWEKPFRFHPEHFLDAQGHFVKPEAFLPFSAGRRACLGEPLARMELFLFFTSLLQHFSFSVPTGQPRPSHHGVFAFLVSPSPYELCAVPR

H4 = experiment: Luminescence Cell-Based Dose Response HTS to Identify Activators of 5'UTR Stem-Loop Driven Prion Protein mRNA Translation in H4 Neuroglioblastoma Cells. [Related pubchem assays: 1829 (Project Summary), 1814 (Primary HTS)]; type: functional; settings: Homo sapiens

With Cc1ccc(N2C(=O)CSC2c2cccnc2)c(Cl)c1 (configuration not stated) the AC50 (INS1) was > 260 µM (inactive).

With CCc1ccc(C(=O)NNc2ccc(F)cc2F)cc1 the EC50 [1] was > 150 µM (inactive) and the EC50 [2] was > 38 µM (not active).

In the case of COc1cccc(CN2CC(C(=O)NCc3ccc(Cl)s3)CCC2=O)c1 (configuration not stated), the IC50 [3] is reported as > 47.1 µM (inactive) and the EC50 [4] is reported as > 53 µM (inactive).

In the case of COc1cc(NC(=O)c2cc([N+](=O)[O-])ccc2Br)ccc1NC(=O)c1ccco1, the EC50 [5] is reported as 9.95 µM (active).

With O=C(COC(=O)Cn1cnc2ccccc2c1=O)NCc1ccccc1Cl the IC50 [6] was > 20 µM (inactive).

With Cc1ccccc1OCC(O)CN1CCN(CCN2C(=O)c3cccc4cccc(c34)C2=O)CC1 (configuration not stated) the EC50 [7] was 0.851 µM (active), the EC50 [8] was > 60 µM (inconclusive) and the IC50 [6] was > 20 µM (inactive).

For COc1cc(-c2nnc(NC(=O)c3ccc(S(=O)(=O)N4CCOCC4)cc3)o2)cc(OC)c1OC, the EC50 [1] was > 160 µM (inactive) and the EC50 [2] was 5.71 µM (active).

In the case of CCN1CCN(c2cc(C)c3cc(NC(=S)N4CCN(c5ccc(F)cc5)CC4)ccc3n2)CC1, the IC50 [6] is reported as > 20 µM (inactive).

In the case of CCN(CC)c1ccc(/C=C/C(=O)c2cccnc2)cc1, the EC50 [1] is reported as > 150 µM (inactive) and the EC50 [2] is reported as 0.065 µM (active).

With Cc1ccccc1Nc1nc(N)nc(COC(=O)c2cccc(S(=O)(=O)N(C)c3ccccc3)c2)n1 the IC50 [3] was > 47.1 µM (inactive) and the EC50 [4] was > 53 µM (inactive).

In the case of CCn1c(=O)n(CC)c2cc(S(=O)(=O)Nc3ccccc3C)c(C)cc21, the EC50 [5] is reported as > 260 µM (inactive).

In the case of COc1cc2c(cc1O)C[C@@H]1c3c(cc(O)c(OC)c3-2)CCN1C, the AC50 (Cytochrome P450 2D6) is reported as 3.16 µM (inconclusive).

In the case of O=C(Nc1nccs1)c1cc2c(s1)-c1ccccc1OC2, the EC50 (H4) is reported as > 120 µM (not active).

In the case of COc1ccc(NC(=O)COc2ccccc2Cc2ccccc2)cc1S(N)(=O)=O, the EC50 [5] is reported as > 260 µM (inactive).

With O=C(c1cc2nc(-c3ccc(F)cc3)cc(C(F)(F)F)n2n1)N1CCOCC1 the IC50 [3] was > 47.1 µM (inactive) and the EC50 [4] was > 53 µM (inactive).

In the case of CCN(CC)C(=O)CSc1ncnc2c1nnn2-c1ccc(OC)cc1, the IC50 [3] is reported as > 47.1 µM (inactive) and the EC50 [4] is reported as > 53 µM (inactive).

For Cc1ccccc1Cn1c(-c2cncs2)nc2ccccc21, the EC50 [5] was > 260 µM (inactive).

For O=S(=O)(c1cccc2nsnc12)N1CCc2ccccc2C1, the IC50 [3] was > 47.1 µM (inactive) and the EC50 [4] was > 53 µM (inactive).

With COc1ccc(CN2CCC(CO)(CCOc3ccccc3)CC2)cc1C the IC50 [3] was > 47.1 µM (inactive) and the EC50 [4] was > 53 µM (inactive).

In the case of COc1cc(N=C(S)NC(C)(C)C)c(OC)cc1Cl, the EC50 [5] is reported as > 260 µM (inactive).

In the case of CCOC(=O)CSc1cc(-c2ccccc2)nc2ncnn12, the EC50 [5] is reported as 22.8 µM (active).

In the case of CCCn1c(=N)n(CC(=O)c2ccc([N+](=O)[O-])cc2)c2ccccc21, the EC50 [1] is reported as 10.5 µM (active) and the EC50 [2] is reported as > 38 µM (not active).

For CN(C)c1ccc(-c2cncnc2Nc2ccccc2)cc1, the AC50 (Cytochrome P450 2D6) was 20 µM (inconclusive).

With Cc1ccc(S(=O)(=O)c2c(N)n(-c3ccccc3)c3nc4ccccc4nc23)cc1 the EC50 [5] was 28.6 µM (active).

With CCCCn1c(C)c(C(=O)OCC)c2c(CN3CCOCC3)c(O)ccc21 the EC50 [5] was > 260 µM (inactive).
